Laboratory results taken from ChEMBL document CHEMBL5046267, “Discovery of N-Trisubstituted Pyrimidine Derivatives as Type I RET and RET Gatekeeper Mutant Inhibitors with a Novel Kinase Binding Pose” (J Med Chem, 2022).
The source made the active and inactive calls. The calls are words filed in the database; no cut-off is given here.

How the values were obtained:
[1] = tested on: HEK293T; assay: Inhibition of autophosphorylation of NCOA4-RET V804M mutant (unknown origin) transfected HEK293T cells assessed as inhibition of autophosphorylation of RET at 100 to 2500 nM measured after 2 hrs by Western blotting analysis; assay type: cell-based; conditions: Homo sapiens, dose 100-2500 nM
[2] = tested on: HEK293T; assay: Inhibition of autophosphorylation of human NCOA4-RET G810R mutant transfected HEK293T cells assessed as inhibition of autophosphorylation of RET at 100 to 2500 nM measured after 2 hrs by Western blotting analysis; assay type: cell-based; conditions: dose 100-2500 nM

SMILES | inhibition [1] | inhibition [2]
Cc1cc(Nc2cc(N3CCN(C)CC3)nc(Nc3ccc(CC(=O)Nc4cccc(F)c4)cc3)n2)[nH]n1 | Active | inactive
Cc1cc(Nc2cc(N3CCN(C)CC3)nc(Nc3ccc(CC(=O)Nc4ccc(C(C)C)cc4)cc3)n2)[nH]n1 | Active | inactive
CCN1CCN(c2cc(Nc3cc(C)n[nH]3)nc(Nc3ccc(CC(=O)NCc4cccc(F)c4)cc3)n2)CC1 | Active | inactive
Cc1cc(Nc2cc(N3CCN(C)CC3)nc(Nc3ccc(CC(=O)Nc4ccc(F)cc4)cc3)n2)[nH]n1 | Active | inactive
